Assay results published in US11427548B2 (Arvinas Operations, Inc., priority 2015, dated 2022).
Like-named read-outs stand apart in the source and are kept apart here.

Target: T1, Androgen Receptor (Homo sapiens, UniProt P10275)
T1 construct: endogenous in cells; host or cells: VCaP cells
T1 sequence (P10275 1-920): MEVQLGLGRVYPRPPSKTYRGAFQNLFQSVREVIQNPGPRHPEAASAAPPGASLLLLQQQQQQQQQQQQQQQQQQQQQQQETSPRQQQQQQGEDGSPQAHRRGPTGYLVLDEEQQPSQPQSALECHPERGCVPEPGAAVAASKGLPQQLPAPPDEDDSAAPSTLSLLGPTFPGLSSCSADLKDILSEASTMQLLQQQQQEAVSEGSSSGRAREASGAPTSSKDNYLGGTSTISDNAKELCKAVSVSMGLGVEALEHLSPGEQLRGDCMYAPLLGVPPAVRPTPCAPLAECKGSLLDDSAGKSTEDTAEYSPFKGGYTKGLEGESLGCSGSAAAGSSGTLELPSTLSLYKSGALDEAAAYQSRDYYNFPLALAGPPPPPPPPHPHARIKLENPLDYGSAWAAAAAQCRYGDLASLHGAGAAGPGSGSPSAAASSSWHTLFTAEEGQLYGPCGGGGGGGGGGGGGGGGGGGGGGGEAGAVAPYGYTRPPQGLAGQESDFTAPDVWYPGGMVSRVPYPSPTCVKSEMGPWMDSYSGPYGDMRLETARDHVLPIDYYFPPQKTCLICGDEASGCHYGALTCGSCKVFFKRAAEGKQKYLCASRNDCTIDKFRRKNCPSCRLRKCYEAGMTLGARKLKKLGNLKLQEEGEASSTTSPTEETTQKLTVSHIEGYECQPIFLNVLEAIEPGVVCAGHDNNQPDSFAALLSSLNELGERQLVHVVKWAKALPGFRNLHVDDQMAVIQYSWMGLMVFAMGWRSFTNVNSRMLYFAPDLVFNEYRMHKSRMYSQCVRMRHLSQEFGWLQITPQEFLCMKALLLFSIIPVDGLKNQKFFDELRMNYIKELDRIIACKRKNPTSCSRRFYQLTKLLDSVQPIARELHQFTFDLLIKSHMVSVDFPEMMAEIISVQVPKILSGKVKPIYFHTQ
Experiment: Androgen Receptor ELISA assay (PathScan AR ELISA) in VCaP cells: AR degradation, Dmax and DC50
Format: cell-based
Procedure, shortened: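 VCaP cells in phenol red-free RPMI with 5% charcoal-stripped FBS were grown at least 3 days, then given compound as 7 half-log doses in 0.1% DMSO with 0.1 nM R1881 for 24 h. Lysates went into a sandwich AR ELISA with TMB read at 450 nm.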

[1] = VCaP cells; Table 36; read-out: VCaP DC50
[2] = VCaP, VCaP cells; Table 36; read-out: VCaP Dmax (%)
[3] = VCaP cells; Table 35; read-out: VCaP DC50
[4] = VCaP, VCaP cells; Table 35; read-out: VCaP Dmax (%)
[5] = read-out: VCaP DC50; VCaP cells; Table 34

| Structure (SMILES) | DC50 [1] | Dmax [2] | Dmax (VCaP, read-out: VCaP Dmax (%)) | other results |
| --- | --- | --- | --- | --- |
| CC(C)(C)[C@H](NC(=O)COCCN1CCN(c2ccc(C(=O)N[C@H]3C(C)(C)[C@H](Oc4ccc(C#N)c(Cl)c4)C3(C)C)cn2)CC1)C(=O)N1C[C@H](O)C[C@H]1C(=O)NCc1ccc(Cl)cc1 [Example 737, N-((1r,3r)-3-(3-chloro-4-cyanophenoxy)-2,2,4,4-tetramethylcyclobutyl)-6-(4-(2-(2-(((S)-1-((2S,4R)-2-((4-chlorobenzyl)carbmaoyl)-4-hydroxypyrrolidin-1-yl)-3,3-dimethyl-1-oxobutan-2-yl)amino)-2-oxoethoxy)ethyl)pipera-zin-1-yl)nicotinamdie] | > 501 nM | 26 to 50% |  |  |
| CC(C)C[C@H](OCCN1CCN(c2ccc(C(=O)N[C@H]3C(C)(C)[C@H](Oc4ccc(C#N)c(Cl)c4)C3(C)C)cn2)CC1)C(=O)N[C@H](C(=O)N1C[C@H](O)C[C@H]1C(=O)NCc1ccc(Cl)cc1)C(C)C [Example 726, N-((1r,3r)-3-(3-chloro-4-cyanophenoxy)-2,2,4,4-tetramethylcyclobutyl)-6-(4-(2-(((S)-1-(((S)-1-((2S,4R)-2-((4-chlorobenzyl)carbamoyl)-4-hydroxypyrrolidin-1-yl)-3-methyl-1-oxobutan-2-yl)amino)-4-methyl-1-oxopentan-2-yl)oxy)ethyl)piperazin-1-yl)nicotinamide] | > 501 nM | < 25% |  |  |
| C[C@H](NC(=O)[C@@H]1C[C@@H](O)CN1C(=O)[C@@H](NC(=O)COCCCCOc1ccc(C(=O)N[C@H]2C(C)(C)[C@H](Oc3ccc(C#N)c(Cl)c3)C2(C)C)cc1)C(C)(C)C)c1ccc(C#N)cc1 [Example 548] |  |  |  | DC50 [3]: < 50 nM; Dmax [4]: 51 to 70% |
| Cc1cc(C(C(=O)N2C[C@H](O)C[C@H]2C(=O)NCc2ccc(Cl)cc2OCCOCCOCCOc2ccc(N3C(=S)N(c4ccc(C#N)c(C(F)(F)F)c4)C(=O)C3(C)C)cc2)C(C)C)on1 (stereo partly drawn) [Example 735, (2S,4R)-N-(4-chloro-2-(2-(2-(2-(4-(3-(4-cyano-3-(trifluoromethyl)phenyl)-5,5-dimethyl-4-oxo-2-thioxoimidazolidin-1-yl)phenoxy)ethoxy)eth-oxy)ethoxy)benzyl)-4-hydroxy-1-(3-methyl-2-(3-methylisoxazol-5-yl)butanoyl)pyrrolidine-2-carboxamide] |  |  | < 25% | DC50 (read-out: VCaP DC50; VCaP cells; Table 36): > 501 nM |
| CC(C)(C)[C@H](NC(=O)COCCCCCNc1ccc(C(=O)N[C@H]2C(C)(C)[C@H](Oc3ccc(C#N)c(Cl)c3)C2(C)C)cc1)C(=O)N1C[C@H](O)C[C@H]1C(=O)NCc1ccc(-c2scnc2C#N)cc1 [Example 521] |  |  |  | DC50 [3]: < 50 nM; Dmax [4]: 51 to 70% |
| Cc1ncsc1-c1ccc(CNC(=O)[C@@H]2C[C@@H](O)CN2C(=O)[C@@H](NC(=O)CNCCCCOCCCOc2ccc(N3C(=S)N(c4ccc(C#N)c(C(F)(F)F)c4)C(=O)C3(C)C)cc2)C(C)(C)C)cc1 [Example 316] |  |  | 26 to 50% | DC50 [5]: 51 to 500 nM |
| CC(C)(C)[C@H](NC(=O)COCCCCOc1ccc(-c2ccc(N3C(=S)N(c4ccc(C#N)c(Cl)c4)C(=O)C3(C)C)cc2F)cc1)C(=O)N1C[C@H](O)C[C@H]1C(=O)NCc1ccc(-c2cnco2)cc1 [Example 109, (2S,4R)-1-[(2S)-2-{2-[4-(4-{4-[3-(3-chloro-4-cyanophenyl)-5,5-dimethyl-4-oxo-2-sulfanylideneimidazolidin-1-yl]-2-fluorophenyl}phen-oxy)butoxy]acetamido}-3,3-dimethylbutanoyl]-4-hydroxy-N-{[4-(1,3-oxazol-5-yl)phenyl]methyl}pyrrolidine-2-carboxamide] |  |  | > 71% | DC50 (read-out: VCaP DC50; concentration that caused 50% Androgen Receptor degradation, VCaP cells (Table 32)): < 50 nM |
| Cc1ncsc1-c1ccc([C@H](C)NC(=O)[C@@H]2C[C@@H](O)CN2C(=O)[C@@H](NC(=O)CN[C@H]2C[C@H](OC3CCN(c4ccc(C(=O)N[C@H]5C(C)(C)[C@H](Oc6ccc(C#N)c(Cl)c6)C5(C)C)cn4)CC3)C2)C(C)(C)C)cc1 [Example 832, N-((1r,3r)-3-(3-chloro-4-cyanophenoxy)-2,2,4,4-tetramethylcyclobutyl)-6-(4-((1S,3r)-3-((2-(((S)-1-((2S,4R)-4-hydroxy-2-(((S)-1-(4-(4-methylthiazol-5-yl)phenyl)ethyl)carbamoyl)pyrrolidin-1-yl)-3,3-dimethyl-1-oxobutan-2-yl)amino)-2-oxoethyl)amino)cyclobutoxy)piperidin-1-yl)nicotinamide] | < 50 nM |  | > 71% |  |
| Cc1ncsc1-c1ccc([C@H](C)NC(=O)[C@@H]2C[C@@H](O)CN2C(=O)[C@@H](NC(=O)COCCCCCNc2ccc(C(=O)N[C@H]3C(C)(C)[C@H](Oc4ccc(C#N)c(Cl)c4)C3(C)C)nc2)C(C)C)cc1 [Example 670, N-((1r,3r)-3-(3-chloro-4-cyanophenoxy)-2,2,4,4-tetramethylcyclobutyl)-5-((5-(2-(((S)-1-((2S,4R)-4-hydroxy-2-(((S)-1-(4-(4-methylthiaozl-5-yl)phenyl)ethyl)carbam-oyl)pyrrolidin-1-yl)-3-methyl-1-oxobutan-2-yl)amino)-2-oxoethoxy)pentyl)amino) picolinamide] | > 501 nM | < 25% |  |  |
| CC(C)[C@@H](C(=O)N1C[C@H](O)C[C@H]1C(=O)NCc1ccc(Cl)cc1OCCN1CCN(c2ccc(C(=O)N[C@H]3C(C)(C)[C@H](Oc4ccc(C#N)c(Cl)c4)C3(C)C)cn2)CC1)N1Cc2ccccc2C1=O [Example 743, 6-(4-(2-(5-chloro-2-(((2S,4R)-4-hydroxy-1-((S)-3-methyl-2-(1-oxoisoindolin-2-yl)butanoyl)pyrrolidine-2-carboxamido)methyl)phenoxy)ethyl)piperazin-1-yl)-N-((1r,3r)-3-(3-chloro-4-cyanophenoxy)-2,2,4,4-tetramethylcyclobutyl) nicotinamide] | > 501 nM | < 25% |  |  |
| Cc1ncsc1-c1ccc([C@H](C)NC(=O)[C@@H]2CC(F)(F)CN2C(=O)[C@@H](NC(=O)COCCN2CCN(c3ccc(C(=O)N[C@H]4C(C)(C)[C@H](Oc5ccc(C#N)c(Cl)c5)C4(C)C)cn3)CC2)C(C)(C)C)cc1 [Example 725, N-((1r,3r)-3-(3-chloro-4-cyanophenoxy)-2,2,4,4-tetramethylcyclobutyl)-6-(4-(2-(2-(((S)-1-((S)-4,4-difluoro-2-(((S)-1-(4-(4-methylthiazol-5-yl)phenyl)ethyl)carbam-oyl)pyrrolidin-1-yl)-3,3-dimethyl-1-oxobutan-2-yl)amino)-2-oxoethoxy)ethyl)pipera-zin-1-yl)nicotinamide] | > 501 nM | < 25% |  |  |
| Cc1nc(-c2ccn(C[C@H](C)NC(=O)c3cc(COCCCN4CCN(CC(=O)N[C@H](C(=O)N5C[C@H](O)C[C@H]5C(=O)N[C@@H](C)c5ccc(-c6scnc6C)cc5)C(C)(C)C)CC4)[nH]n3)n2)ccc1C#N [Example 767, N-((S)-1-(3-(5-cyano-6-methylpyridin-2-yl)-1H-pyrazol-1-yl)propan-2-yl)-5-((3-(4-(2-(((S)-1-((2S,4R)-4-hydroxy-2-(((S)-1-(4-(4-methylthiazol-5-yl)phenyl)ethyl)carbam-oyl)pyrrolidin-1-yl)-3,3-dimethyl-1-oxobutan-2-yl)amino)-2-oxoethyl)piperazin-1-yl)propoxy)methyl)-1H-pyrazole-3-carboxamide] | > 501 nM | 26 to 50% |  |  |
| Cc1ncoc1-c1ccc(CNC(=O)[C@@H]2C[C@@H](O)CN2C(=O)[C@@H](NC(=O)COCCCCOc2ccc(Oc3ccc(N4C(=S)N(c5cnc(C#N)c(C(F)(F)F)c5)C(=O)C4(C)C)cc3)cc2)C(C)(C)C)cc1 [Example 383] |  |  |  | DC50 (VCaP cells; Table 34; read-out: VCaP DC50): < 50 nM; Dmax (VCaP, VCaP cells; Table 34; read-out: VCaP Dmax (%)): > 71% |
| Cc1ncsc1-c1ccc(CNC(=O)[C@@H]2C[C@@H](O)CN2C(=O)[C@@H](NC(=O)COCCCCOCCCCOc2cccc(N3C(=S)N(c4ccc(C#N)c(C(F)(F)F)c4)C(=O)C3(C)C)c2)C(C)(C)C)cc1 [Example 320] |  |  | 26 to 50% | DC50 [5]: < 50 nM |
| Cc1ncsc1-c1ccc(C(CO)NC(=O)[C@@H]2C[C@@H](O)CN2C(=O)[C@@H](NC(=O)CCCN2CCN(c3ccc(C(=O)N[C@H]4C(C)(C)[C@H](Oc5ccc(C#N)c(Cl)c5)C4(C)C)cn3)CC2)C(C)(C)C)cc1 (stereo partly drawn) [Example 781, N-((1r,3r)-3-(3-chloro-4-cyanophenoxy)-2,2,4,4-tetramethylcyclobutyl)-6-(4-(4-(((S)-1-((2S,4R)-4-hydroxy-2-(((R)-2-hydroxy-1-(4-(4-methylthiazol-5-yl)phenyl)ethyl)carbamoyl)pyrrolidin-1-yl)-3,3-dimethyl-1-oxobutan-2-yl)amino)-4-oxobutyl)piperazin-1-yl)nicotinamide] | > 501 nM | 26 to 50% |  |  |
